Assay results: article doi:10.1101/2025.03.31.646301v1, “Discovery of Tankyrase scaffolding inhibitor specifically targeting the ARC4 peptide binding domain” (biorxiv, 2025)

Molecular target: T1, TNKS2 ARC4 (Homo sapiens, UniProt Q9H2K2)
T1 construct: ankyrin repeat cluster 4 domain; FRET: 6xHis-mCerulean (CFP) fusion; DSF, NMR, crystal: MBP and His tag cleaved by TEV, residues 487-649 printed for crystal; E. coli BL21(DE3)
T1 sequence (Q9H2K2 487-649): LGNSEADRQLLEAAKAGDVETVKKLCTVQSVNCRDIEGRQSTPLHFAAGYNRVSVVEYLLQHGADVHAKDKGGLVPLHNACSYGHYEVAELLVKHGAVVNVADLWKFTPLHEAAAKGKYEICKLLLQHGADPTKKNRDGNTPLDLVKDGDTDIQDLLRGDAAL
Assay: FRET displacement of YFP-REAGDGEE peptide from CFP-ARC
Assay type: binding
Details: not given

SMILES	IC50
COc1ccc(C2C(C(=O)c3ccc4c(c3)OCCO4)=C(O)C(=O)N2CCCN2CCOCC2)cc1 (stereo not drawn) [compound 6, 6]	82 µM
CCN(CC)CCCN1C(=O)C(O)=C(C(=O)c2ccc3c(c2)OCCO3)C1c1ccc(O)cc1 (stereo not drawn) [compound 1, 1]	16 µM
Cc1ccc(C2C(C(=O)c3ccc4c(c3)OCCO4)=C(O)C(=O)N2CCCN2CCOCC2)cc1 (stereo not drawn) [compound 4, 4]	77 µM

Molecular target: T2, TNKS1 ARC4 (Homo sapiens, UniProt O95271)
T2 construct: gene TNKS; ankyrin repeat cluster 4 domain, 6xHis-mCerulean (CFP) fusion, E. coli
T2 sequence (O95271 649-806 limits assumed): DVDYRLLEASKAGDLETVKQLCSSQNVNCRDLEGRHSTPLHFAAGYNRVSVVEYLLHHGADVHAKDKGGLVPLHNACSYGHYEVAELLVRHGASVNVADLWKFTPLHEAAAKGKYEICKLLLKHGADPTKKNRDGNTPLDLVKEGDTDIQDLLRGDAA
Assay: as above
Assay type: binding
Details: not given
From the text: FRET displacement of YFP-REAGDGEE peptide from CFP-ARC on TNKS1 ARC4

SMILES	IC50
CCC(CC)CCCN1C(=O)C(O)=C(C(=O)c2ccc3c(c2)OCCO3)[C@@H]1c1ccc(O)cc1 [S8]	9 µM
COc1ccc(C2C(C(=O)c3ccc4c(c3)OCCO4)=C(O)C(=O)N2CCCN2CCOCC2)cc1 (stereo not drawn) [compound 6, 6]	123 µM
CCN(CC)CCCN1C(=O)C(O)=C(C(=O)c2ccc3c(c2)OCCO3)C1c1ccc(O)cc1 (stereo not drawn) [compound 1, 1]	18 µM
Cc1ccc(C2C(C(=O)c3ccc4c(c3)OCCO4)=C(O)C(=O)N2CCCN2CCOCC2)cc1 (stereo not drawn) [compound 4, 4]	121 µM

Molecular target: T3, TNKS2 ARC1 (Homo sapiens, UniProt Q9H2K2)
T3 construct: ankyrin repeat cluster 1 domain, 6xHis-mCerulean (CFP) fusion, E. coli
T3 sequence (Q9H2K2 21-174 limits assumed): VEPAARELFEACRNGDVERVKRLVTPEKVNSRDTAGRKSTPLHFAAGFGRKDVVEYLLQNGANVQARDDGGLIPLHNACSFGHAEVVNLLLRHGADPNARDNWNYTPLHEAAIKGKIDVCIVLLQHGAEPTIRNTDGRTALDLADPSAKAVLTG
Assay: as above
Assay type: binding
Details: not given
From the text: FRET displacement of YFP-REAGDGEE peptide from CFP-ARC on TNKS2 ARC1

SMILES	IC50
COc1ccc(C2C(C(=O)c3ccc4c(c3)OCCO4)=C(O)C(=O)N2CCCN2CCOCC2)cc1 (stereo not drawn) [compound 6, 6]	> 1000 µM
CCN(CC)CCCN1C(=O)C(O)=C(C(=O)c2ccc3c(c2)OCCO3)C1c1ccc(O)cc1 (stereo not drawn) [compound 1, 1]	> 1000 µM
Cc1ccc(C2C(C(=O)c3ccc4c(c3)OCCO4)=C(O)C(=O)N2CCCN2CCOCC2)cc1 (stereo not drawn) [compound 4, 4]	> 1000 µM

Molecular target: T4, TNKS2 ARC2 (Homo sapiens, UniProt Q9H2K2)
T4 construct: ankyrin repeat cluster 2 domain, 6xHis-mCerulean (CFP) fusion, E. coli
T4 sequence (Q9H2K2 173-329 limits assumed): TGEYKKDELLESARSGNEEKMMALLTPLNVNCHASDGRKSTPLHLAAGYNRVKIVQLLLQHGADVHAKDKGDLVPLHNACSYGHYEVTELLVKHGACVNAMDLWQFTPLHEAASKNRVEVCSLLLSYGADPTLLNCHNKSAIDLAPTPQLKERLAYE
Assay: as above
Assay type: binding
Details: not given
From the text: FRET displacement of YFP-REAGDGEE peptide from CFP-ARC on TNKS2 ARC2

SMILES	IC50
CCC(CC)CCCN1C(=O)C(O)=C(C(=O)c2ccc3c(c2)OCCO3)[C@@H]1c1ccc(O)cc1 [S8]	> 1000 µM
COc1ccc(C2C(C(=O)c3ccc4c(c3)OCCO4)=C(O)C(=O)N2CCCN2CCOCC2)cc1 (stereo not drawn) [compound 6, 6]	> 1000 µM
CCN(CC)CCCN1C(=O)C(O)=C(C(=O)c2ccc3c(c2)OCCO3)C1c1ccc(O)cc1 (stereo not drawn) [compound 1, 1]	> 1000 µM
Cc1ccc(C2C(C(=O)c3ccc4c(c3)OCCO4)=C(O)C(=O)N2CCCN2CCOCC2)cc1 (stereo not drawn) [compound 4, 4]	> 1000 µM

Molecular target: T1, TNKS2 ARC4
Assay: not given
Set-up: DSF thermal shift of TNKS2 ARC4, stabilization over DMSO control
Details: binder
From the text: Given the notable stabilization of the pyrrolone-based compounds from the Commercials Diversity collection, we decided to focus on their common scaffold for compound optimization. Pyrrolone is indeed a versatile moiety that is largely employed for the design of compounds with a variety of biological effects.[55] The nine primary hits were acquired from commercial suppliers, they underwent quality control, additional DSF validation and determination of potency through FRET-based IC50 measurements (Table 1). All the tested compounds include a benzodioxane moiety (R[1]), a [compound left out] group with substitutions in the para position (R[2]), and an R[3] group with an aliphatic character and a tertiary amine. […] In addition, all molecules, except for 7, have IC50 values below 100 µM. Among the nine molecules, 1 performed the best in terms of stabilization of TNKS2 ARC4 and potency. […] In the same position, the presence of a hydrophobic methyl group (3, 4), other halogen substituents (5) and alkoxy groups (6–9) is also tolerated, even if not optimal. […] A SAR investigation was conducted with purchased and synthesized analogues of 1 through FRET-based potency measurements and DSF assay with TNKS2 ARC4 (Table 2, Table S2). All the compounds commercially acquired underwent quality control. […] Changes to the length of the aliphatic chain at R[3] greatly impacts both potency and protein stabilization. […] The diethylamino-based substituent at R[3] […] Compounds 25 and 26 further indicate that the presence of tertiary amine at R[3] is not necessary to achieve binding. […] 5 Figure S2. DSF assay results for validation of primary hits identified in the EU-OPENSCREEN Commercials Diversity Library. (A) and (B) show DSF assay validation measurements of TNKS2 ARC4 with primary hits from the Commercial Diversity Library. Compounds are tested at 100 μM. They are named after their EU-OPENSCREEN identity codes and the identities are available for consultation on ECBD. 1,2 (A) and (B) show results from two independent experiments. For each experiment, each compound was tested with a single measurement, while controls (TNKS2 ARC4 with 100 μM optimized peptide, TNKS2 ARC4 with 100 μM DMSO) are studied in at least four replicates and errors are shown. Moreover, stabilization over the control (TNKS2 ARC4 with DMSO) is indicated (ΔTm °C). […] It was not possible to measure the melting curve of TNKS2 ARC4 in presence of EOS21552, EOS54043, EOS54043.

SMILES	ΔTm ± SD (°C)
CCC(CC)CCCN1C(=O)C(O)=C(C(=O)c2ccc3c(c2)OCCO3)[C@@H]1c1ccc(O)cc1 [S8]	2.44 ± 0.12 °C
COc1ccc(C2C(C(=O)c3ccc4c(c3)OCCO4)=C(O)C(=O)N2CCCN2CCOCC2)cc1 (stereo not drawn) [compound 6, 6]	1.81 ± 0.31 °C
Cc1ccc(C2C(C(=O)c3ccc4c(c3)OCCO4)=C(O)C(=O)N2CCCN2CCOCC2)cc1 (stereo not drawn) [compound 4, 4]	2.19 ± 0.31 °C

Molecular target: T5, TNKS2 ARC5 (Homo sapiens, UniProt Q9H2K2)
T5 construct: ankyrin repeat cluster 5 domain, 6xHis-mCerulean (CFP) fusion, E. coli
T5 sequence (Q9H2K2 646-800 limits assumed): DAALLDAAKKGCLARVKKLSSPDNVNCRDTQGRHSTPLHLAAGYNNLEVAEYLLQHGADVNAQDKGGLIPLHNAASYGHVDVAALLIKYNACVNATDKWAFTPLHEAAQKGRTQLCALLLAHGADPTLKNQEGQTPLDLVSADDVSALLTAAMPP
Assay: FRET displacement of YFP-REAGDGEE peptide from CFP-ARC
Assay type: binding
Details: not given
From the text: FRET displacement of YFP-REAGDGEE peptide from CFP-ARC on TNKS2 ARC5

SMILES	IC50
COc1ccc(C2C(C(=O)c3ccc4c(c3)OCCO4)=C(O)C(=O)N2CCCN2CCOCC2)cc1 (stereo not drawn) [compound 6, 6]	> 1000 µM
CCN(CC)CCCN1C(=O)C(O)=C(C(=O)c2ccc3c(c2)OCCO3)C1c1ccc(O)cc1 (stereo not drawn) [compound 1, 1]	> 1000 µM
Cc1ccc(C2C(C(=O)c3ccc4c(c3)OCCO4)=C(O)C(=O)N2CCCN2CCOCC2)cc1 (stereo not drawn) [compound 4, 4]	> 1000 µM

Molecular target: T6, TNKS1 ARC2-3 (Homo sapiens, UniProt O95271)
T6 construct: gene TNKS; ankyrin repeat clusters 2-3, 6xHis-mCerulean (CFP) fusion, E. coli
T6 sequence (O95271 336-649 limits assumed): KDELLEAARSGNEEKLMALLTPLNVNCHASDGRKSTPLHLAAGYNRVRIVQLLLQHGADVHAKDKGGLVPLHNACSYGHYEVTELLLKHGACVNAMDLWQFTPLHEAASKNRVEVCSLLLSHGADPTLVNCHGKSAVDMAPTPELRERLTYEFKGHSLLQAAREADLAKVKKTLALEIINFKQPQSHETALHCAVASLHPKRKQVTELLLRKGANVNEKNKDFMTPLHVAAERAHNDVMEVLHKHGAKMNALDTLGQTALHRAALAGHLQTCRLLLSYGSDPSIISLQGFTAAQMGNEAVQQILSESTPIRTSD
Assay: as above
Assay type: binding
Details: not given
From the text: FRET displacement of YFP-REAGDGEE peptide from CFP-ARC on TNKS1 ARC2-3

SMILES	IC50
CCC(CC)CCCN1C(=O)C(O)=C(C(=O)c2ccc3c(c2)OCCO3)[C@@H]1c1ccc(O)cc1 [S8]	> 1000 µM
COc1ccc(C2C(C(=O)c3ccc4c(c3)OCCO4)=C(O)C(=O)N2CCCN2CCOCC2)cc1 (stereo not drawn) [compound 6, 6]	> 1000 µM
CCN(CC)CCCN1C(=O)C(O)=C(C(=O)c2ccc3c(c2)OCCO3)C1c1ccc(O)cc1 (stereo not drawn) [compound 1, 1]	> 1000 µM
Cc1ccc(C2C(C(=O)c3ccc4c(c3)OCCO4)=C(O)C(=O)N2CCCN2CCOCC2)cc1 (stereo not drawn) [compound 4, 4]	> 1000 µM

Molecular target: T1, TNKS2 ARC4
Assay: X-ray co-crystal structure
Assay type: binding
Details: residues 487-649, tag-free, pH 4.2; S enantiomer in TBM pocket, R enantiomer at crystal contacts

SMILES	X-ray co-crystal structure
CCC(CC)CCCN1C(=O)C(O)=C(C(=O)c2ccc3c(c2)OCCO3)[C@@H]1c1ccc(O)cc1 [S8]	we co-crystallized the compound displaying the best potency (S8) with TNKS2 ARC4

Molecular target: T7, TNKS1 ARC1 (Homo sapiens, UniProt O95271)
T7 construct: gene TNKS; ankyrin repeat cluster 1 domain, 6xHis-mCerulean (CFP) fusion, E. coli
T7 sequence (O95271 173-336 limits assumed): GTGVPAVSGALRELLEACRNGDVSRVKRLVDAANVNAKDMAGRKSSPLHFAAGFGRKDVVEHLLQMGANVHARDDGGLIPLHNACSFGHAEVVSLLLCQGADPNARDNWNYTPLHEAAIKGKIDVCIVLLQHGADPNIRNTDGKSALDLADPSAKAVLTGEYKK
Assay: FRET displacement of YFP-REAGDGEE peptide from CFP-ARC
Assay type: binding
Details: not given
From the text: FRET displacement of YFP-REAGDGEE peptide from CFP-ARC on TNKS1 ARC1

SMILES	IC50
CCC(CC)CCCN1C(=O)C(O)=C(C(=O)c2ccc3c(c2)OCCO3)[C@@H]1c1ccc(O)cc1 [S8]	> 1000 µM
COc1ccc(C2C(C(=O)c3ccc4c(c3)OCCO4)=C(O)C(=O)N2CCCN2CCOCC2)cc1 (stereo not drawn) [compound 6, 6]	> 1000 µM
CCN(CC)CCCN1C(=O)C(O)=C(C(=O)c2ccc3c(c2)OCCO3)C1c1ccc(O)cc1 (stereo not drawn) [compound 1, 1]	> 1000 µM
Cc1ccc(C2C(C(=O)c3ccc4c(c3)OCCO4)=C(O)C(=O)N2CCCN2CCOCC2)cc1 (stereo not drawn) [compound 4, 4]	> 1000 µM

Molecular target: T8, TNKS1 ARC5 (Homo sapiens, UniProt O95271)
T8 construct: gene TNKS; ankyrin repeat cluster 5 domain, 6xHis-mCerulean (CFP) fusion, E. coli
T8 sequence (O95271 806-966 limits assumed): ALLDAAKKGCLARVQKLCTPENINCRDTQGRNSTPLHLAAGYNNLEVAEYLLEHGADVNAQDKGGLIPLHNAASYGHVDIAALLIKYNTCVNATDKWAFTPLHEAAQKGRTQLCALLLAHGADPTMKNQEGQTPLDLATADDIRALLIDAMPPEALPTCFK
Assay: as above
Assay type: binding
Details: not given
From the text: FRET displacement of YFP-REAGDGEE peptide from CFP-ARC on TNKS1 ARC5

SMILES	IC50
CCC(CC)CCCN1C(=O)C(O)=C(C(=O)c2ccc3c(c2)OCCO3)[C@@H]1c1ccc(O)cc1 [S8]	> 1000 µM
COc1ccc(C2C(C(=O)c3ccc4c(c3)OCCO4)=C(O)C(=O)N2CCCN2CCOCC2)cc1 (stereo not drawn) [compound 6, 6]	> 1000 µM
CCN(CC)CCCN1C(=O)C(O)=C(C(=O)c2ccc3c(c2)OCCO3)C1c1ccc(O)cc1 (stereo not drawn) [compound 1, 1]	> 1000 µM
Cc1ccc(C2C(C(=O)c3ccc4c(c3)OCCO4)=C(O)C(=O)N2CCCN2CCOCC2)cc1 (stereo not drawn) [compound 4, 4]	> 1000 µM
